Patent US20130252987A1, “METHOD OF REGULATING PLASMA LIPOPROTEINS” (MCMASTER UNIVERSITY, priority 2010, published 2013)

Key:
[1] = system: RETN (human resistin gene); test: resistin siRNA transfection of HepG2 cells; type: cell-based; details: 10 nM siRNA, 24 or 48 hours
Method: HepG2 cells were seeded 200,000 cells per well in a 6-well plate in 2300 uL of 10% FBS DMEM with antibiotics. Awaiting transfection, the cells were placed at 37° C. and 5% CO2. Next, 300 ng of siRNA against RETN (human resistin gene), with the sequence 5′[…] (SEQ ID NO: 5), purchased from Qiagen, MD, was diluted in 100 uL of serum free DMEM which yielded a final concentration of 10 nM once added to cells. 12 uL of HiPerfect Transfection reagent (Qiagen) was also added to the siRNA and mixed by pipetting. The siRNA mixture was allowed to form transfection complexes by incubation at room temperature for 7 minutes. The complexes were then added drop wise to the cells and incubated at 37° C. and 5% CO2 for 24 or 48 hours before harvest. Transfection efficiency was quantitatively measured by the fluorescently labeled scrambled negative control siRNA (Qiagen). siRNA knockdown efficiency was measured by positive control siGAPDH (Qigen) at the transcript and protein levels.

[2] = system: HepG2 cells; test: apoB and apolipoprotein expression and secretion, immunoprecipitation and Western blot; type: cell-based, human; details: lactacystin 10 μM, 24 hours
Method: During experiments in which HepG2 cells were treated with human recombinant resistin (Calbiochem, UK) the media was changed to 1% FBS-containing DMEM. […] In separate experiments, cells were treated with the fatty acid, oleate (100 μM) (Sigma, ON) for 24 hours, with or without human resistin (50 ng/mL) for 24 hours. In other experiments, cells were treated with the 10 μM lactacystin (Cayman Chemical, Ann Arbor, Mich.) for 24 hours to assess intracellular proteosome-dependent apoB protein degradation.
Horseradish peroxidase-conjugated antibodies (BioRad, Hercules, Calif.) were used as secondary antibodies.
All of the experiments to follow were performed three times and representative results are shown. […] Immunoprecipitation on cell lysates and media, followed by Western blots to detect the cellular expression and secretion of human apoB protein were then performed. The constitutively expressed cellular proteins, beta-actin and albumin were used as internal immunoblot controls to confirm equal protein loading in the apoB immunoblots of cell lysates and media, respectively. […] Treatment with 25 ng/mL resistin further stimulated apoB secretion by approximately 250% compared with untreated cells (FIG. 1A).

[3] = system: HepG2 cells; test: immunoblotting for LDL receptor and PCSK9 in HepG2 cells
Method: Cells were propagated in 10% FBS-containing DMEM supplemented with 1% penicillin-streptomycin and 0.06% L-glutamine (584 mg/L) at 37° C., 5% CO2. During treatment experiments with human recombinant resistin (Calbiochem, UK) and/or lovastatin (Sigma, Mo.), the media was changed to 1% FBS-containing DMEM. All of the experiments to follow were performed at least three times and representative results are shown. Cells were stimulated with resistin at various doses (0, 10, 25, 50, and 100 ng/mL) for 24 hours or with a single dose at 50 ng/mL resistin. In other experiments, the microsomal triglyceride transfer protein (MTP) inhibitor, CP-346086, was administered at 1.3 nM, either alone or together with resistin (50 ng/mL) for 24 hours. Lovastatin was administered at 1 to 5 μM for 24 hours to stimulate the cells, either alone or in combination with resistin (50 ng/mL). Unless otherwise indicated, all experiments were performed in triplicate in three independent experiments.
Cell lysates collected with RIPA buffer (50 mM Tris, 150 mM sodium chloride, 1% NP-40, 12 mM sodium deoxycholate, 3.5 mM SDS, pH 7.4) and protease inhibitor cocktail (Roche Diagnostics, QC) were analyzed for human LDL receptor and PCSK9 as previously described (Rashid et al. Proc Nall Acad Sci U S A 2005; 102:5374-9). Equivalent amounts of total protein, determined by Bradford reaction was subjected to sodium dodecyl sulfate polyacrylamide gel electrophoresis (SDS-PAGE), transferred onto nitrocellulose membranes (BioRad, CA) and immunoblotted using antibodies against the LDL receptor (Fitzgerald International, CA) and PCSK9 (Cayman Chemicals, MI). Horseradish peroxidase-conjugated antibodies (BioRad, CA) were used as secondary antibodies. Immunoreactive bands were visualized with a chemiluminescence kit (PerkinElmer Life Sciences, MA). The blots were exposed to KODAK Biomax films, and the signal was quantified by densitometry using Quantity One version 4.6.7. software (Bio Rad, CA).
All of the experiments were performed at least three times and representative results are shown. Dose-response experiments were performed in HepG2 cells with 0, 10, 25, 50, 75 and 100 ng/mL of human resistin for 24 hours. Western blots were then performed on cell lysates to detect the cellular expression of LDL receptor protein.

[4] = system: HepG2 cells; test: real-time quantitative PCR of mRNA expression; type: cell-based, human; details: CP-346086 1.3 nM, 24 hours
Method: Total RNA was isolated from cell lysates (RNeasy Mini Kit, Qiagen, Germantown, Md.) and used as a template for cDNA synthesis (QuantiTech Reverse Transcription Kit, Qiagen, Germantown, Md.). Quantitative real-time PCR was performed using an Applied Biosystems 7300 Real Time PCR system (Carlsbad, Calif.) according to the manufacturer's instructions and with the SYBR green master kit (Qiagen, Germantown, Md.). Primers for the real-time PCR internal control gene cyclophilin A (sense, 5′-[…]-3′ (SEQ ID NO:3); antisense, 5′-[…]-3′ (SEQ ID NO:4)) were synthesized (IDT, Coralville, Iowa). Primers for succinate degydrogenase (SDH) (another real-time PCR internal control gene), apoB, microsomal triglyceride transfer protein (MTP), Srebp1, Srebp2, acetyl-coA carboxylase (ACC), HMG-coA reductase, HMG-coA synthase, squalene synthase (SS), the LDL receptor, PCSK9, fatty acid synthase (FAS), […] (SCD), DGAT1 and DGAT2 were purchased (proprietary sequences not available) (Qiagen, Germantown, Md.). The values reported for each mRNA were corrected to the cyclophilin A and SDH mRNA values.
Total RNA was isolated from cell lysates (RNeasy Mini Kit, Qiagen, MD) and used as a template for cDNA synthesis (QuantiTech Reverse Transcription Kit, Qiagen, MD). Quantitative real-time PCR was performed using an Applied Biosystems 7300 Real-Time PCR system (Carlsbad, Calif.) according to the manufacturer's instructions and with the SYBR green kit (Qiagen, MD). Primers for the real-time PCR internal control gene cyclophilin A, as identified in Example 1, were synthesized (IDT, IA). Primers for succinate dehydrogenase (SDH) (another real-time PCR internal control gene), SREBP2, HMG-CoA reductase, the LDL receptor and PCSK9 were purchased (proprietary sequences not available) (Qiagen, MD). The values reported for each mRNA were corrected to the cyclophilin A and SDH mRNA values.

[5] = system: HepG2 cells; test: cell viability, tryphan blue staining; type: cell-based, human; details: 1.3 nM
Method: Cell viability was determined with 0.4% tryphan blue (Sigma-Aldrich, ON) staining and calculated using the following formula: % Cell Viability=(number of unstained (living) cells/Total number of cells)×100.
The next question was whether this amount of human resistin is toxic to hepatocytes. Tryphan blue staining of HepG2 cells upon 50 ng/mL of resistin treatment to determine cell viability was performed.

[6] = CP-346086 1.3 nM with resistin 50 ng/mL, 24 hours

For “Resistin siRNA: siRNA against RETN (human resistin gene), sequence 5′CCCTAATATTTAGGGCAATAA (SEQ ID NO: 5), Qiagen (listed as DNA, chemistry not given here)”, which “cellular LDL receptor levels” value [1] is on record?
The value was “very effective in increasing”.

And the “cellular PCSK9 levels” value [1]?
Its value is “reduction”.

What about the “cellular protein levels of resistin” value [1] of the same compound?
The value was “very effective in reducing”.

What about the “expression of apoB” value [1] of the same compound?
Its value is “reducing the expression”.

`CC(=O)N[C@@H](CSC(=O)[C@]1([C@@H](O)C(C)C)NC(=O)[C@H](C)[C@@H]1O)C(=O)O` [lactacystin, reference compound] was tested. Which “cellular expression and secretion of apoB” value [2] did it give?
The value was “increase”.

`O=C(Nc1ccc2c(c1)CCN(Cc1ncn[nH]1)C2)c1ccccc1-c1ccc(C(F)(F)F)cc1` [CP-346086, reference compound] was tested. Which “effect on LDL receptor protein levels observed with resistin treatment” value [3, 6] did it give?
Its value is “reversed the decline”.

And the “effect on PCSK9 protein levels induced by resistin” value [3, 6]?
The value was “reversed the increase”.

What about the “HMG-coA reductase mRNA expression” value [4] of the same compound?
Its value is “reduction”.

What about the “SREBP2 mRNA expression” value [4] of the same compound?
Its value is “reduction”.

And the cell viability [5]?
Its cell viability is “did not reduce cell viability”.

For `CC[C@H](C)C(=O)O[C@H]1C[C@@H](C)C=C2C=C[C@H](C)[C@H](CC[C@@H]3C[C@@H](O)CC(=O)O3)[C@H]21` [lovastatin, reference compound], which “hepatocyte LDL receptor expression” value ([3]; lovastatin 5 μM) is on record?
The value was “increase”.
